From ChEMBL document CHEMBL2203037, “Synthesis and Anti-influenza A Virus Activity of 2,2-Dialkylamantadines and Related Compounds” (ACS Med Chem Lett, 2012)

What was measured:
[1] = system: Influenza B virus; experiment: Antiviral activity against amantidine and rimantadine-resistant Influenza B virus (B/HK/5/72) infected in MDCK cells assessed as virus-induced cytopathic effect measured 3 days post infection by microscopic analysis; type: functional, cell-based; settings: B/Hong Kong/05/1972, MDCK, 72 h
[2] = system: Influenza A virus; experiment: Antiviral activity against amantadine-resistant Influenza A virus (A/PR/8/34 (H1N1)) infected in MDCK cells assessed as virus-induced cytopathic effect by MTS assay; type: functional, organism-based, A/Puerto Rico/8/1934(H1N1)
[3] = system: Influenza B virus; experiment: Antiviral activity against amantidine and rimantadine-resistant Influenza B virus (B/HK/5/72) infected in MDCK cells assessed as virus-induced cytopathic effect by MTS assay; type: functional, cell-based; settings: B/Hong Kong/05/1972, MDCK
[4] = system: Influenza A virus; experiment: Antiviral activity against amantadine-resistant Influenza A virus (A/PR/8/34 (H1N1)) infected in MDCK cells assessed as virus-induced cytopathic effect measured 3 days post infection by microscopic analysis; type: functional, organism-based; settings: A/Puerto Rico/8/1934(H1N1), 72 h
[5] = Selectivity index, ratio of CC50 for dog MDCK cells to EC50 for amantadine-resistant Influenza A virus (A/PR/8/34 (H1N1)); type: toxicity, cell-based; settings: read-out: Ratio CC50/EC50
[6] = Influenza A virus, A/Puerto Rico/8/1934(H1N1), MDCK

SMILES | EC50 [1] | EC50 [2, 6] | EC50 [3] | EC50 [4] | EC50 ([2]; mdck) | selectivity ratio [5]
CC1(C)C2CC3CC(C2)CC1(N)C3 | > 100 µM | 10 µM | > 100 µM | 15 µM |  | 
CC12CC3CC1(C)CC(N)(C2)C3(C)C | > 100 µM | 4.5 µM | > 100 µM | 4.6 µM |  | 
CN(C)C12CC3CC(CC(C3)C1(C)C)C2 | > 100 µM | 4.8 µM | > 100 µM | 4 µM |  | 
NC(=O)c1ncn([C@@H]2O[C@H](CO)[C@@H](O)[C@H]2O)n1 [RIBAVIRIN] | 8 µM |  | 8.1 µM |  | 8.2 µM | 
CCNC12CC3CC(CC(C3)C1(C)C)C2 | > 100 µM | > 100 µM | > 100 µM | > 100 µM |  | 
NC12CC3CC(CC(C3)C13CCCCC3)C2 | > 100 µM | 0.9 µM | > 100 µM | 1.1 µM |  | 
CC(N)C12CC3CC(CC(C3)C1)C2 (centres undefined) [RIMANTADINE] | > 100 µM |  | > 100 µM | 63 µM |  | 
CCOC(=O)C1=C[C@@H](OC(CC)CC)[C@H](NC(C)=O)[C@@H](N)C1 [OSELTAMIVIR] |  |  |  | 21 µM |  | 
CN(Cc1ccccc1)C12CC3CC(CC(C3)C1(C)C)C2 | > 100 µM | > 100 µM | > 100 µM | > 100 µM |  | 
CNC12CC3CC(CC(C3)C1(C)C)C2 | > 100 µM | 10 µM | > 100 µM | 6 µM |  | 
CN(C)C12CC3(C)CC(CC3(C)C1)C2(C)C | > 100 µM | 5.7 µM | > 100 µM | 5.8 µM |  | 
CC(C)C1C2CC3CC(C2)CC1(N)C3 (centres undefined) | > 100 µM | 1.2 µM | > 100 µM | 5.8 µM |  | 
CC1(C)C2CC3CC(C2)CC1(N1CCCCC1)C3 | > 100 µM | > 100 µM | > 100 µM | > 100 µM |  | 
CCCC1(CCC)C2CC3CC(C2)CC1(N(C)C)C3 | > 100 µM | 6.7 µM | > 100 µM | 6 µM |  | 
CC(=O)N[C@H]1[C@H]([C@H](O)[C@H](O)CO)OC(C(=O)O)=C[C@@H]1NC(=N)N [ZANAMIVIR] |  |  |  | 6 µM |  | 
CC(C)C1C2CC3CC(C2)CC1(N(C)C)C3 (centres undefined) | > 100 µM | 6 µM | > 50 µM | 5.1 µM |  | 
CCC1(CC)C2CC3CC(C2)CC1(N(C)C)C3 | > 100 µM | 9.6 µM | > 100 µM | 0.7 µM |  | 
NC12CC3CC(CC(C3)C1)C2 [AMANTADINE] | > 100 µM |  | > 100 µM | 53 µM |  | 
CCCC1(CCC)C2CC3CC(C2)CC1(N)C3 | > 100 µM | > 100 µM | > 100 µM | > 100 µM |  | 
CCC1(CC)C2CC3CC(C2)CC1(NC)C3 | > 100 µM |  | > 100 µM | 4 µM |  | 
CCC1(CC)C2CC3CC(C2)CC1(N)C3 | > 100 µM | 1.7 µM | > 100 µM | 1.2 µM |  | > 50
CC1(C)C2CC3CC(C2)CC1(NCc1ccccc1)C3 | > 100 µM | > 100 µM | > 100 µM | > 100 µM |  | 
